Series [1] relates to HIV-1 strains, for e.g., 92HT599. The series can be described thus: Antiviral activity: p24 estimation in MT-2 cells infected with HIV-1. As to conditions: Human immunodeficiency virus 1, MT2, MT-2 cells infected with HIV-1, p24, ~96 hours; for IC50: read-out: Antiviral activity IC50 (nM) Efficacy IC50. It counts as cell-based. On the procedure: MT-2 cells were infected with required number of TCID50's of HIV-1 strains, for e.g., 92HT599. The infected cells were plated at the concentration of 30, 000 cells per well in a 96 well plate. Test compound was added to the 96 well plate with the final concentration of DMSO (vehicle—not more than 1%). The plates are then incubated in a CO2 incubator for ˜96 hours (˜4 days) for viral infection. At the end of incubation period an aliquot from each well was taken for p24 estimation. The quantitation of p24 is an estimated index for antiviral activity of the compound. Percent inhibition was calculated with reference to control values (vehicle controls).
p-24 estimation was carried out using Advance biosciences kit as per the procedure detailed by supplier.

The nature of series [2]: Single dose oral pharmacokinetic study. It counts as in vivo. As to conditions: mouse, mice, 30 mg/kg, plasma; for AUC(0-t): read-out: Mice oral PK @30 mg/kg AUC 0-t; for Cmax: read-out: Mice oral PK @30 mg/kg Cmax. On the procedure:
The test item was administered through oral route to animals (rat/mice) at 30 mg/kg dose in a suitable vehicle at 10 ml/kg dose volume. Blood samples (˜50 uL at each time point) were collected from retro-orbital plexus using K3 EDTA as anticoagulant in eppend; orf tubes at defined time intervals under light ether anesthesia. The samples were centrifuged at 3500×g to separate plasma and stored at −80° C. until analysis.
Sample analysis: Test samples were analyzed using LC-MS-MS after developing fit-for-purpose method for each of test compound.

With `C=C(C)[C@@H]1CC[C@]2(C(=O)N3CCC[C@H]3c3ncc(-c4ccccn4)[nH]3)CC[C@]3(C)[C@H](CC[C@@H]4[C@@]5(C)CC[C@H](OC(=O)[C@H]6C[C@@H](C(=O)O)C6(C)C)C(C)(C)[C@@H]5CC[C@]43C)[C@@H]12` [Compound 1, (1R,3S)-2,2-dimethyl-3-((((1R,3aS,5aR,5bR,7aR,9S,11aR,11bR,13aR,13bR)-5a,5b,8,8,11a-pentamethyl-1-(prop-1-en-2-yl)-3a-((S)-2-(5-(pyridin-2-yl)-1H-imidazol-2-yl)pyrrolidine-1-carbonyl)icosahydro-1H-cyclopenta[a]chrysen-9-yl)oxy)carbonyl)cyclobutane-1-carboxylic acid], the IC50 in series [1] is 8.06 nM. Further, in series [2], the AUC(0-t) was determined as 177 µg·h/mL and the Cmax is 6290 ng/mL.

As for `C=C(C)[C@@H]1CC[C@]2(C(=O)N3CCC[C@H]3c3ncc(-c4cccc(F)c4)[nH]3)CC[C@]3(C)[C@H](CC[C@@H]4[C@@]5(C)CC[C@H](OC(=O)[C@H]6C[C@@H](C(=O)O)C6(C)C)C(C)(C)[C@@H]5CC[C@]43C)[C@@H]12` [Compound 4, (1R,3S)-3-((((1R,3aS,5aR,5bR,7aR,9S,11aR,11bR,13aR,13bR)-3a-((S)-2-(5-(3-fluorophenyl)-1H-imidazol-2-yl)pyrrolidine-1-carbonyl)-5a,5b,8,8,11a-pentamethyl-1-(prop-1-en-2-yl)icosahydro-1H-cyclopenta[a]chrysen-9-yl)oxy)carbonyl)-2,2-dimethylcyclobutane-1-carboxylic acid], in series [1], the IC50 is 1.67 nM. Besides, in series [2], the AUC(0-t) was 398 µg·h/mL and the Cmax came to 14800 ng/mL.

Take `C=C(C)[C@@H]1CC[C@]2(C(=O)N3C[C@H](OCCOC)C[C@H]3c3nc(-c4ccccc4)c[nH]3)CC[C@]3(C)[C@H](CC[C@@H]4[C@@]5(C)CC[C@H](OC(=O)[C@H]6C[C@@H](C(=O)O)C6(C)C)C(C)(C)[C@@H]5CC[C@]43C)[C@@H]12` [Compound 7, (1R,3S)-3-((((1R,3aS,5aR,5bR,7aR,9S,11aR,11b,13aR,13bR)-3a-((2S,4R)-4-(2-methoxyethoxy)-2-(4-phenyl-1H-imidazol-2-yl)pyrrolidine-1-carbonyl)-5a,5b,8,8,11a-pentamethyl-1-(prop-1-en-2-yl)icosahydro-1H-cyclopenta[a]chrysen-9-yl)oxy)carbonyl)-2,2-dimethylcyclobutane-1-carboxylic acid]: in series [1], the IC50 is 5.5 nM. In series [2], the AUC(0-t) came to 342 µg·h/mL and the Cmax came out at 12800 ng/mL.

As for `C=C(C)[C@@H]1CC[C@]2(C(=O)N3C[C@H](OCCOC)C[C@H]3c3nc(-c4cccc(F)c4)c[nH]3)CC[C@]3(C)[C@H](CC[C@@H]4[C@@]5(C)CC[C@H](OC(=O)[C@H]6C[C@@H](C(=O)O)C6(C)C)C(C)(C)[C@@H]5CC[C@]43C)[C@@H]12` [Compound 8, (11R,3S)-3-((((1R,3aS,5aR,5bR,7aR,9S,11aR,11bR,13aR,13bR)-3a-((2S,4R)-2-(4-(3-fluorophenyl)-1H-imidazol-2-yl)-4-(2-methoxyethoxy)pyrrolidine-1-carbonyl)-5a,5b,8,8,11a-pentamethyl-1-(prop-1-en-2-yl)icosahydro-1H-cyclopenta[a]chrysen-9-yl)oxy)carbonyl)-2,2-dimethylcyclobutane-1-carboxylic acid], in series [1], the IC50 is 61.1 nM. Besides, in series [2], the AUC(0-t) came out at 1240 µg·h/mL and the Cmax came out at 41300 ng/mL.

For `C=C(C)[C@@H]1CC[C@]2(C(=O)N3C[C@H](OCCOC)C[C@H]3c3nc(-c4ccc(F)cc4)c[nH]3)CC[C@]3(C)[C@H](CC[C@@H]4[C@@]5(C)CC[C@H](OC(=O)[C@H]6C[C@@H](C(=O)O)C6(C)C)C(C)(C)[C@@H]5CC[C@]43C)[C@@H]12` [Compound 9, (1R,3S)-3-((((1R,3aS,5aR,5bR,7aR,9S,11aR,11bR,13aR,13bR)-3a-((2S,4R)-2-(4-(4-fluorophenyl)-1H-imidazol-2-yl)-4-(2-methoxyethoxy)pyrrolidine-1-carbonyl)-5a,5b,8,8,11a-pentamethyl-1-(prop-1-en-2-yl)icosahydro-1H-cyclopenta[a]chrysen-9-yl)oxy)carbonyl)-2,2-dimethylcyclobutane-1-carboxylic acid], the IC50 in series [1] was 5.52 nM.

In the case of `C=C(C)[C@@H]1CC[C@]2(C(=O)N3CCC[C@H]3c3nc(-c4ccccc4)c(C)[nH]3)CC[C@]3(C)[C@H](CC[C@@H]4[C@@]5(C)CC[C@H](OC(=O)[C@H]6C[C@@H](C(=O)O)C6(C)C)C(C)(C)[C@@H]5CC[C@]43C)[C@@H]12` [Compound 13, (1R,3S)-2,2-dimethyl-3-((((1R,3aS,5aR,5bR,7aR,9S,11aR,11bR,13aR,13bR)-5a,5b,8,8,11a-pentamethyl-3a-((S)-2-(5-methyl-4-phenyl-1H-imidazol-2-yl)pyrrolidine-1-carbonyl)-1-(prop-1-en-2-yl)icosahydro-1H-cyclopenta[a]chrysen-9-yl)oxy)carbonyl)cyclobutane-1-carboxylic acid], the IC50 in series [1] was 4.9 nM.

In the case of `C=C(C)[C@@H]1CC[C@]2(C(=O)N3CCC[C@H](c4ncc(-c5ccccc5)[nH]4)C3)CC[C@]3(C)[C@H](CC[C@@H]4[C@@]5(C)CC[C@H](OC(=O)[C@H]6C[C@@H](C(=O)O)C6(C)C)C(C)(C)[C@@H]5CC[C@]43C)[C@@H]12` [Compound 20, (1R,3S)-2,2-dimethyl-3-((((1R,3aS,5aR,5bR,7aR,9S,11aR,11bR,13aR,13bR)-5a,5b,8,8,11a-pentamethyl-3a-((S)-3-(5-phenyl-1H-imidazol-2-yl)piperidine-1-carbonyl)-1-(prop-1-en-2-yl)icosahydro-1H-cyclopenta[a]chrysen-9-yl)oxy)carbonyl)cyclobutane-1-carboxylic acid], in series [1], the half-maximal inhibitory concentration (IC50) is 58.4 nM.

For `C=C(C)[C@@H]1CC[C@]2(C(=O)N3CCC[C@H]3c3ncc(-c4ccccc4)[nH]3)CC[C@]3(C)[C@H](CC[C@@H]4[C@@]5(C)CC[C@H](OC(=O)C6C(C(=O)O)C6(C)C)C(C)(C)[C@@H]5CC[C@]43C)[C@@H]12` (stereo partly drawn) [Compound 22, 2,2-di methyl-3-((((1R,3aS,5aR,5bR,7aR,9S,11aR,11bR,13aR,13bR)-5a,5b,8,8,11a-pentamethyl-3a-((S)-2-(5-phenyl-1H-imidazol-2-yl)pyrrolidine-1-carbonyl)-1-(prop-1-en-2-yl)-icosahydro-1H-cyclopenta[a]chrysen-9-yl)oxy)carbonyl)cyclopropane-1-carboxylic acid], in series [1], the IC50 is 1000 nM.

Take `C=C(C)[C@@H]1CC[C@]2(C(=O)N3C[C@H](OC(C)C)C[C@H]3c3nc(-c4ccccc4)c[nH]3)CC[C@]3(C)[C@H](CC[C@@H]4[C@@]5(C)CC[C@H](OC(=O)[C@H]6C[C@@H](C(=O)O)C6(C)C)C(C)(C)[C@@H]5CC[C@]43C)[C@@H]12` [Compound 30, (1R,3S)-3-((((1R,3aS,5aR,5bR,7aR,9S,11aR,11bR,13aR,13bR)-3a-((2S,4R)-4-isopropoxy-2-(4-phenyl-1H-imidazol-2-yl)pyrrolidine-1-carbonyl)-5a,5b,8,8,11a-pentamethyl-1-(prop-1-en-2-yl)icosahydro-1H-cyclopenta[a]chrysen-9-yl)oxy)carbonyl)-2,2-dimethylcyclobutane-1-carboxylic acid]: in series [1], the inhibition at 0.1 µM is 61%, the inhibition at 1 µM was 99% and the IC50 is 89.6 nM.

As for `C=C(C)[C@@H]1CC[C@]2(C(=O)N3C[C@H](OCCOC)C[C@H]3c3nc(-c4cccc(F)c4)c[nH]3)CC[C@]3(C)[C@H](CC[C@@H]4[C@@]5(C)CC[C@H](OC(=O)CC(C)(C)C(=O)O)C(C)(C)[C@@H]5CC[C@]43C)[C@@H]12` [Compound 44, 4-(((1R,3aS,5aR,5bR,7aR,9S,11aR,1bR,13aR,13bR)-3a-((2S,4R)-2-(4-(3-fluorophenyl)-1H-imidazol-2-yl)-4-(2-methoxyethoxy)pyrrolidine-1-carbonyl)-5a,5b,8,8,11a-pentamethyl-1-(prop-1-en-2-yl)icosahydro-1H-cyclopenta[a]chrysen-9-yl)oxy)-2,2-dimethyl-4-oxo butanoic acid], the IC50 in series [1] is 27.6 nM.

In the case of `CC1([C@@H]2CC[C@]3(C(=O)N4CCC[C@H]4c4nc5ccccc5[nH]4)CC[C@]4(C)[C@H](CC[C@@H]5[C@@]6(C)CC[C@H](OC(=O)[C@H]7C[C@@H](C(=O)O)C7(C)C)C(C)(C)[C@@H]6CC[C@]54C)[C@@H]23)CC1` [Compound 61, (1R,3S)-3-((((1R,3aS,5aR,5bR,7aR,9S,11aR,11bR,13aR,13bR)-3a-((S)-2-(1H-benzo[d]imidazol-2-yl)pyrrolidine-1-carbonyl)-5a,5b,8,8,11a-pentamethyl-1-(1-methylcyclopropyl)icosahydro-1H-cyclopenta[a]chrysen-9-yl)oxy)carbonyl)-2,2-dimethylcyclobutane-1-carboxylic acid], in series [1], the inhibition at 0.1 µM was 100%, the inhibition at 1 µM was 100% and the IC50 is 56.9 nM.

Source of the values: patent US20170129916A1, “NOVEL BETULINIC PROLINE IMIDAZOLE DERIVATIVES AS HIV INHIBITORS” (HETERO RESEARCH FOUNDATION, priority 2014, published 2017).
